{"source": "patent US12703885B2", "about": "“Method for predicting the response to CDK4/6 inhibitor therapy in cancer patients” (GBG FORSCHUNGS GMBH, priority 2021, dated 2026)", "system": "HR+, HER2− eBC at high risk of recurrence", "assay": "PENELOPE-B randomized, double-blind, placebo-controlled Phase 3 study; Cox regression for endpoint iDFS", "format": "in vivo, human", "source_text": "The data underlying the present invention were obtained in the context of the PENELOPE^B study (NCT01864746). PENELOPE^B is a randomized, double-blind, placebo-controlled Phase 3 study comparing one year of palbociclib plus at least five years of standard adjuvant endocrine therapy to placebo plus at least five years of standard adjuvant endocrine therapy in 1,250 women with HR+, HER2− eBC at high risk of recurrence who have residual invasive disease after completing neoadjuvant chemotherapy. Patients in the trial scored 3 or higher (or 2 if there were lymph node metastases at the time of surgery) on the clinical-pathologic stage—estrogen/grade (CPS-EG). The CPS-EG is a validated risk assessment tool combining: clinical stage before neoadjuvant treatment, pathological stage after neoadjuvant treatment, grading and estrogen-receptor status. More than 190 clinical sites in 12 countries around the globe participated in PENELOPE-B. The study opened in November 2013 and closed recruitment on Dec. 31, 2017. RNA was extracted from post-surgical residual tumor tissue of patients from the Penelope^B study (GBG 78) and quantified using the HTG EdgeSeq Oncology Biomarker Panel (HTG Molecular Diagnostics Inc.) resulting in a so-called count value for each of the 2559 genes in the assay. Quality control measures were performed as described by the manufacturer. For 906 patients HTG measurements were successfully performed and passed said quality controls. […] Each regression model was calculated based on 906 patients from the Penelope^B study. […] The 20 genes with smallest p-values for the interaction were selected. • 2) For each gene from step 1) the technical eligibility for measurement was evaluated. […] In the cohort of 782 patients the gene expression value was adjusted to the lower limit for between 0 and 16 patients, and to the upper limit for between 0 and 8 patients. • 4) The correlation between genes was analyzed by hierarchical clustering and analysis of the Pearson correlation coefficient matrix based on graphical methods. […]"}
{"smiles": "CC(=O)c1c(C)c2cnc(Nc3ccc(N4CCNCC4)cn3)nc2n(C2CCCC2)c1=O", "note": "[palbociclib]", "values": [{"measurement": "HR for iDFS, palbociclib vs. placebo (95% CI)", "setting": "overall population, n=906, plus standard adjuvant endocrine therapy, no significant difference between arms", "result": "0.89 (0.69-1.16)"}, {"measurement": "HR (95% CI), arm (palbociclib vs placebo), iDFS", "setting": "subgroup score3dich high (above median of average of PIAS2, MAP2K6, DSG3, ABCC12, IFT52 expression)", "result": "0.54 (0.37-0.79)"}, {"measurement": "HR (95% CI), arm (palbociclib vs placebo), iDFS", "setting": "subgroup score3dich low (below median of average of PIAS2, MAP2K6, DSG3, ABCC12, IFT52 expression)", "result": "1.45 (1.00-2.09)"}]}
